Data as given in patent US7491794B2, “Macrocyclic compounds as inhibitors of viral replication” (Intermune, Inc., priority 2003, dated 2009).

Legend:
[1] = system: HCV sub-genomic replicon, GS4.3; assay: Quantitation by ELISA of NPTII in the HCV sub-genomic replicon, GS4.3, Section B; assay type: cell-based; details: Hepatitis C virus; GS4.3 cells, 72 h incubation; read-out: Replicon EC50
Outline: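 GS4.3 cells (HuH-7 carrying HCV 1377/NS3-3′ replicon) were treated 72 h at 37 °C with inhibitors in 3-fold dilutions, 1% DMSO, no G418. Lysate NPTII was measured by ELISA (TMB, 450 nm). Signal as % of DMSO control; EC50 from 4-parameter fit.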

[2] = molecular target: T1, NS3-NS4A protease (Hepatitis C virus genotype 1a, UniProt P27958); assay: NS3-NS4A protease assay (NS3 inhibition assay, RETS1 substrate), Section B; assay type: biochemical; details: read-out: NS3-NS4A IC50
T1 construct: Recombinant E. coli or Baculovirus full-length NS3 was diluted to 3.33 μM with assay buffer; made in house; host or cells: E. coli or baculovirus (BV) system
Outline: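 Full-length NS3 (E. coli or baculovirus) precomplexed with excess NS4A-2 peptide, run at 2 nM (E. coli) or 3 nM (BV) NS3; compounds pre-incubated 10 min at room temperature before RETS1 substrate. Fluorescence (ex 335/em 495 nm) read kinetically 30 min; IC50 from four-parameter fit, converted to Ki via Ki=IC50/(1+[S]/Km).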

T1 sequence (P27958 1027-1657): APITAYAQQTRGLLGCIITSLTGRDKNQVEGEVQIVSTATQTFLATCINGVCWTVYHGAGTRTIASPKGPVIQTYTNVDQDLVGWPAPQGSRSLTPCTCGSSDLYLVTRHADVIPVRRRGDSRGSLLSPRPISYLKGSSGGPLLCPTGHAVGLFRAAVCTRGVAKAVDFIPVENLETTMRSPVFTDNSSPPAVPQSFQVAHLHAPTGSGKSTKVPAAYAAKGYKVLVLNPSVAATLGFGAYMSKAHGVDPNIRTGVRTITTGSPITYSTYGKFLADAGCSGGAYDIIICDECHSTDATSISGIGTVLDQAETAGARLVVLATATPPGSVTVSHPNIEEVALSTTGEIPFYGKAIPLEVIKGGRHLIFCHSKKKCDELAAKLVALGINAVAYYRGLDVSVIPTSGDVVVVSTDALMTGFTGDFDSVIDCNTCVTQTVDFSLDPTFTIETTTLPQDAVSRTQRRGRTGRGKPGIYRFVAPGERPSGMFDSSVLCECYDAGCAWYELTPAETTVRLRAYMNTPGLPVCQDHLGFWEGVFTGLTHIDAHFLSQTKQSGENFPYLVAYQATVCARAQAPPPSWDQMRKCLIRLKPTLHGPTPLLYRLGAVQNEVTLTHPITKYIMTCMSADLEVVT

SMILES	EC50 [1] [nM]	IC50 [2] [nM]
CC(C)(C)OC(=O)N[C@H]1CCCCC/C=C\[C@@H]2C[C@@]2(C(=O)NS(=O)(=O)c2ccc(C(=O)O)cc2)NC(=O)[C@@H]2C[C@@H](OC(=O)N3Cc4ccccc4C3)CN2C1=O [AR00365387, (1S,4R,6S,14S,18R)-1,3-Dihydro-isoindole-2-carboxylic acid 14-tert-butoxycarbonylamino-4-(4-carboxy-benzenesulfonylaminocarbonyl)-2,15-dioxo-3,16-diaza-tricyclo[14.3.0.0^4,6]nonadec-7-en-18-yl ester]	< 100	< 100
CN(C)c1ccc(S(=O)(=O)NC(=O)[C@@]23C[C@H]2/C=C\CCCCC[C@H](NC(=O)OC(C)(C)C)C(=O)N2C[C@H](OC(=O)N4Cc5ccccc5C4)C[C@H]2C(=O)N3)cc1 [AR00365572, (1S,4R,6S,14S,18R)-1,3-Dihydro-isoindole-2-carboxylic acid 14-tert-butoxycarbonylamino-4-(4-dimethylamino-benzenesulfonylaminocarbonyl)-2,15-dioxo-3,16-diaza-tricyclo[14.3.0.0^4,6]nonadec-7-en-18-yl ester]	< 100	< 100
COC(=O)c1ccc2c(c1)CN(C(=O)O[C@@H]1C[C@H]3C(=O)N[C@]4(C(=O)NS(=O)(=O)C5CC5)C[C@H]4/C=C\CCCCC[C@H](NC(=O)OC(C)(C)C)C(=O)N3C1)C2 [AR00365083, (1S,4R,6S,14S,18R)-1,3-Dihydro-isoindole-2,5-dicarboxylic acid 2-(14-tert-butoxycarbonylamino-4-cyclopropanesulfonylaminocarbonyl-2,15-dioxo-3,16-diaza-tricyclo[14.3.0.0^4,6]nonadec-7-en-18-yl) ester 5-methyl ester]	< 100	< 100
CC(C)(C)OC(=O)N[C@H]1CCCCC/C=C\[C@@H]2C[C@@]2(C(=O)NS(C)(=O)=O)NC(=O)[C@@H]2C[C@@H](OC(=O)N3CCc4ccccc4C3)CN2C1=O [AR00254906, (1S,4R,6S,14S,18R)-3,4-Dihydro-1H-isoquinoline-2-carboxylic acid 14-tert-butoxycarbonylamino-4-methanesulfonylaminocarbonyl-2,15-dioxo-3,16-diaza-tricyclo[14.3.0.0^4,6]nonadec-7-en-18-yl ester]	< 1000	< 100
O=C(NC1CCOC1)N[C@H]1CCCCC/C=C\[C@@H]2C[C@@]2(C(=O)NS(=O)(=O)C2CC2)NC(=O)[C@@H]2C[C@@H](OC(=O)N3CCc4ccccc4C3)CN2C1=O (stereo partly drawn) [AR00320222, (1S,4R,6S,14S,18R)-3,4-Dihydro-1H-isoquinoline-2-carboxylic acid 4-cyclopropanesulfonylaminocarbonyl-2,15-dioxo-14-[3-(tetrahydro-furan-3-yl)-ureido]-3,16-diaza-tricyclo[14.3.0.0^4,6]nonadec-7-en-18-yl ester]	< 10000	< 100
CC(C)(C)OC(=O)N[C@H]1CCCCC/C=C\[C@@H]2C[C@@]2(C(=O)NS(=O)(=O)C2CC2)NC(=O)[C@@H]2C[C@@H](OC(=O)N3Cc4c(F)ccc(F)c4C3)CN2C1=O [AR00334399, (1S,4R,6S,14S,18R)-4,7-Difluoro-1,3-dihydro-isoindole-2-carboxylic acid 14-tert-butoxycarbonylamino-4-cyclopropanesulfonylaminocarbonyl-2,15-dioxo-3,16-diaza-tricyclo[14.3.0.0^4,6]nonadec-7-en-18-yl ester]	< 100	< 100
CC(C)(C)OC(=O)N[C@H]1CCCCC/C=C\[C@@H]2C[C@@]2(C(=O)NS(=O)(=O)C2CC2)NC(=O)[C@@H]2C[C@@H](OC(=O)N3CCc4c(F)cccc4C3)CN2C1=O [AR00298996, (1S,4R,6S,14S,18R)-5-Fluoro-3,4-dihydro-1H-isoquinoline-2-carboxylic acid 14-tert-butoxycarbonylamino-4-cyclopropanesulfonylaminocarbonyl-2,15-dioxo-3,16-diaza-tricyclo[14.3.0.0^4,6]nonadec-7-en-18-yl ester]	< 100	< 100
